Measured values: ChEMBL document CHEMBL5030546, “Synthesis of thiocolchicine amine derivatives and evaluation of their antiproliferative activity” (Bioorg Med Chem Lett, 2021)

How the values were obtained:
[1] = Resistance index, ratio of IC50 for human LoVo/DX cells to IC50 for human LoVo cells; assay type: functional
[2] = test system: MCF7; experiment: cells; assay type: functional, cell-based; details: Homo sapiens, MCF7, 72 h
Description: Antiproliferative activity against human MCF7 cells assessed as inhibition of cell proliferation incubated for 72 hrs by SRB assay

[3] = test system: LoVo; experiment: cells; assay type: functional, cell-based; details: Homo sapiens, 72 h
Description: Antiproliferative activity against human LoVo cells assessed as inhibition of cell proliferation incubated for 72 hrs by SRB assay

[4] = test system: A549; experiment: cells; assay type: functional, cell-based; details: Homo sapiens, A549, 72 h
Description: Antiproliferative activity against human A549 cells assessed as inhibition of cell proliferation incubated for 72 hrs by SRB assay

[5] = cells; assay type: functional, cell-based; details: Homo sapiens, LoVo/DX, 72 h
Description: Antiproliferative activity against human Lovo/DX cells assessed as inhibition of cell proliferation incubated for 72 hrs by SRB assay

[6] = test system: BALB/3T3; experiment: Cytotoxicity against mouse BALB/3T3 cells assessed as reduction in cell viability incubated for 72 hrs by SRB assay; assay type: ADME, cell-based; details: BALB/3T3, 72 h
[7] = Selectivity index, ratio of IC50 for mouse BALB/3T3 cells to IC50 for human LoVo/DX cells; assay type: toxicity; details: BALB/3T3 cells versus LoVo/DX cells, read-out: Ratio IC50
[8] = Selectivity index, ratio of IC50 for mouse BALB/3T3 cells to IC50 for human MCF7 cells; assay type: toxicity; details: BALB/3T3 cells versus MCF7 cells, read-out: Ratio IC50
[9] = Selectivity index, ratio of IC50 for mouse BALB/3T3 cells to IC50 for human A549 cells; assay type: toxicity; details: BALB/3T3 cells versus A549 cells, read-out: Ratio IC50
[10] = Selectivity index, ratio of IC50 for mouse BALB/3T3 cells to IC50 for human LoVo cells; assay type: toxicity; details: BALB/3T3 cells versus LoVo cells, read-out: Ratio IC50

| IC50 [2] | IC50 [3] | IC50 [4] | IC50 [5] | SMILES | Ratio IC50 [1] | IC50 [6] | selectivity ratio [7] | selectivity ratio [8] | selectivity ratio [9] | selectivity ratio [10] |
| --- | --- | --- | --- | --- | --- | --- | --- | --- | --- | --- |
| 92.7 nM | 52.8 nM | 89.5 nM | 77.8 nM | CCCCCN[C@H]1CCc2cc(OC)c(OC)c(OC)c2-c2ccc(SC)c(=O)cc21 | 1.5 | 99.4 nM | – | – | – | – |
| 109 nM | 83 nM | 104 nM | 72.7 nM | CCCCCCN[C@H]1CCc2cc(OC)c(OC)c(OC)c2-c2ccc(SC)c(=O)cc21 | 0.9 | 107 nM | – | – | – | – |
| 12 nM | 8.5 nM | 11.6 nM | 31.1 nM | CCCN[C@H]1CCc2cc(OC)c(OC)c(OC)c2-c2ccc(SC)c(=O)cc21 | 3.7 | 14.3 nM | – | – | – | – |
| 9.7 nM | 7.8 nM | 10.9 nM | 56.2 nM | COc1cc2c(c(OC)c1OC)-c1ccc(SC)c(=O)cc1[C@@H](NCc1ccncc1)CC2 | 7.2 | 10.9 nM | – | – | – | – |
| 102 nM | 79.2 nM | 95 nM | 210 nM | COc1cc2c(c(OC)c1OC)-c1ccc(SC)c(=O)cc1[C@@H](NC/C=C/c1ccccc1)CC2 | 2.7 | 98.6 nM | – | – | – | – |
| 17.8 nM | 12 nM | 11 nM | 70.2 nM | CCCC(C)CN[C@H]1CCc2cc(OC)c(OC)c(OC)c2-c2ccc(SC)c(=O)cc21 (stereo partly specified) | 5.8 | 78.5 nM | – | – | – | – |
| 12.2 nM | 8.8 nM | 10.9 nM | 17.9 nM | CCCCN[C@H]1CCc2cc(OC)c(OC)c(OC)c2-c2ccc(SC)c(=O)cc21 | 2 | 11.7 nM | – | – | – | – |
| 11.2 nM | 7.6 nM | 9.6 nM | 33.2 nM | COc1cc2c(c(OC)c1OC)-c1ccc(SC)c(=O)cc1[C@@H](NCc1ccc(F)cc1)CC2 | 4.4 | 11.7 nM | – | – | – | – |
| 84.2 nM | 72.4 nM | 101 nM | 234 nM | COc1cc2c(c(OC)c1OC)-c1ccc(SC)c(=O)cc1[C@@H](NCc1ccc(I)cc1)CC2 | 3.2 | 119 nM | – | – | – | – |
| 100 nM | 47.6 nM | 83.4 nM | 52.3 nM | COc1cc2c(c(OC)c1OC)-c1ccc(SC)c(=O)cc1[C@@H](NCc1ccc(C)cc1)CC2 | 1.1 | 85.4 nM | – | – | – | – |
| 10.3 nM | 8.8 nM | 10.8 nM | 69.4 nM | COc1ccc(CN[C@H]2CCc3cc(OC)c(OC)c(OC)c3-c3ccc(SC)c(=O)cc32)cc1O | 7.9 | 10.8 nM | – | – | – | – |
| 73.4 nM | 37 nM | 70.5 nM | 64.9 nM | COc1cc2c(c(OC)c1OC)-c1ccc(SC)c(=O)cc1[C@@H](NCc1ccc(Cl)cc1)CC2 | 1.8 | 88.2 nM | – | – | – | – |
| 11.4 nM | 10.7 nM | 10.7 nM | 66.9 nM | COc1cc2c(c(OC)c1OC)-c1ccc(SC)c(=O)cc1[C@@H](NCCc1ccccc1)CC2 | 6.2 | 61.2 nM | – | – | – | – |
| 11.3 nM | 8.5 nM | 10.5 nM | 10.2 nM | COc1cc2c(c(OC)c1OC)-c1ccc(SC)c(=O)cc1[C@@H](NCC(C)C)CC2 | 1.2 | 11 nM | – | – | – | – |
| 719 nM | 453 nM | 152 nM | 1980 nM | CCCCCCCCCCCCN[C@H]1CCc2cc(OC)c(OC)c(OC)c2-c2ccc(SC)c(=O)cc21 | 4.4 | 1070 nM | – | – | – | – |
| 10.3 nM | 7.9 nM | 9.6 nM | 13.9 nM | COc1cc2c(c(OC)c1OC)-c1ccc(SC)c(=O)cc1[C@@H](NCc1ccccc1)CC2 | 1.8 | 9.8 nM | – | – | – | – |
| 7.7 nM | 27.9 nM | 47.3 nM | 400 nM | COc1cc2c(c(OC)c1OC)-c1ccc(SC)c(=O)cc1[C@@H](NCc1cccc(CN[C@H]3CCc4cc(OC)c(OC)c(OC)c4-c4ccc(SC)c(=O)cc43)n1)CC2 | 14.3 | 50.3 nM | – | – | – | – |
| 1120 nM | 903 nM | 1010 nM | 693 nM | CCCCCCCCN[C@H]1CCc2cc(OC)c(OC)c(OC)c2-c2ccc(SC)c(=O)cc21 | 0.8 | 1040 nM | – | – | – | – |
| 10.3 nM | 9.4 nM | 9.3 nM | 41.7 nM | COc1cc2c(c(OC)c1OC)-c1ccc(SC)c(=O)cc1[C@@H](NCc1ccccc1O)CC2 | 4.5 | 8.8 nM | – | – | – | – |
| 8.2 nM | 53.3 nM | 7.1 nM | 85.6 nM | COc1cc(CN[C@H]2CCc3cc(OC)c(OC)c(OC)c3-c3ccc(SC)c(=O)cc32)ccc1O | 1.8 | 385 nM | 4.5 | 46.9 | 54.2 | 7.2 |
| 146 nM | 71 nM | 149 nM | 3960 nM | COc1cccc2c1C(=O)c1c(O)c3c(c(O)c1C2=O)C[C@@](O)(C(=O)CO)C[C@@H]3O[C@H]1C[C@H](N)[C@H](O)[C@H](C)O1 [DOXORUBICIN] | 56 | 315 nM | – | – | – | – |
| 12 nM | 8.4 nM | 13.1 nM | 9.4 nM | COc1cc2c(c(OC)c1OC)-c1ccc(SC)c(=O)cc1[C@@H](NCCC(C)C)CC2 | 1 | 13.3 nM | – | – | – | – |

| SMILES | IC50 [2] | IC50 [3] | IC50 [4] | IC50 [5] | Ratio IC50 [1] | IC50 [6] | selectivity ratio [7] | selectivity ratio [8] | selectivity ratio [9] | selectivity ratio [10] |
| --- | --- | --- | --- | --- | --- | --- | --- | --- | --- | --- |
| COc1cc2c(c(OC)c1OC)-c1ccc(OC)c(=O)cc1[C@@H](NC(C)=O)CC2 [COLCHICINE] | – | 12.7 nM | 19.3 nM | 967 nM | – | 82.3 nM | – | – | – | – |
| CCN[C@H]1CCc2cc(OC)c(OC)c(OC)c2-c2ccc(SC)c(=O)cc21 | 10.3 nM | 6.5 nM | 10.8 nM | 54.9 nM | 8.5 | 10.2 nM | – | – | – | – |
